In US20260209208A1, “PHENYL-PYRAZOLE CARBOXAMIDE COMPOUNDS” (Acrivon Therapeutics, Inc., priority 2022, published 2026):
pEC50, pIC50: −log10 of the molar value.

Experiments:
[1] = molecular target: T1, Myt1 Kinase (Homo sapiens, UniProt Q99640); assay: AlphaLISA SureFire Ultra Human Phospho-CDK1 (Thr14) target engagement assay in DAOY cells; type: cell-based; details: 4 h incubation, Cdk1 phosphorylated on threonine 14, read-out: TE Myt1 Kinase (AlphaLISA)
T1 construct: endogenous in cells; host or cells: DAOY medulloblastoma cells (ATCC)
T1 sequence (Q99640 1-499): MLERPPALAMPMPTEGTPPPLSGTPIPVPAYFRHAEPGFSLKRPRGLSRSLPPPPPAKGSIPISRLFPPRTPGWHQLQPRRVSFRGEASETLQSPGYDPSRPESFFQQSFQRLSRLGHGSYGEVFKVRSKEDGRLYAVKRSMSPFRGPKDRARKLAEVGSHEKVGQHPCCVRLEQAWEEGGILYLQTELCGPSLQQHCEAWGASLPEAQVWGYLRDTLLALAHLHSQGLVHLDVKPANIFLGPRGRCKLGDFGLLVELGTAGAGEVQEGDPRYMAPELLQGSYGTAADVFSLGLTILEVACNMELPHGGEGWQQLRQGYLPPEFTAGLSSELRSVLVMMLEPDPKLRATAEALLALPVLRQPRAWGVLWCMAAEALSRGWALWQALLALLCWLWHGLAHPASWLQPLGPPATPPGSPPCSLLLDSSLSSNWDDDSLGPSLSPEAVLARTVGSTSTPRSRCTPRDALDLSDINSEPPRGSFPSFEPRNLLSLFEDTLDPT
Description: The following cellular assay was used to determine the extent to which the compounds disclosed herein inhibit phosphorylation of CDK1 at Thr 14.
(§1) DAOY medulloblastoma cell line (ATCC) was cultured in Minimum Essential Medium Eagle supplemented with 10% fetal calf serum (Sigma), 1% Penicillin-Streptomycin and 10 mM HEPES buffer (HyClone). Cell cultures were kept in a humidified incubator at 37° C. and 5% CO2. Cells were routinely tested for Mycoplasma contamination.
For target engagement assessment, quantification of Cdk1 phosphorylated on threonine 14 was detected using the AlphaLISA® SureFire® Ultra™ Human Phospho-CDK1 (Thr14) assay (Perkin Elmer). DAOY cells were seeded into tissue culture 96-well plates (VWR) to a density of 10,000 cells per well. Twenty-four hours post-seeding cells were incubated for 4 h with test compounds at concentrations ranging from 7 to 5000 nM. Cells were washed with PBS and lysed in 50 μl AlphaLISA® lysis buffer before freezing at −80° C. Ten μl of the lysate was transferred to 384 well plates and incubated with AlphaLISA® donor and acceptor beads according to the manufacturer's instructions. Dose response curves and EC50 values were calculated and visualized using GraphPad Prism version 9.

[2] = tested on: DAOY cells; assay: Cell Titer Glo viability assay; type: cell-based; details: Homo sapiens, 144 hours, Cell Titer Glo 2.0
Description: as §1
DAOY cells were seeded at a density of 250 cells per well in tissue culture 384 well plates (Corning Costar). After overnight incubation, cells were incubated with test compounds at concentrations ranging from 0.17 to 10,000 nM. Viability compared to untreated control was assessed at 144 hours using Cell Titer Glo® 2.0 Viability Assay (Promega).

[3] = Oral bioavailability study in mice; type: in vivo; details: female CD-1 mice, single IV bolus 1 mg/kg vs oral gavage 3 mg/kg, dose normalized AUC0-∞
Description: We compared the oral bioavailability of Compound 75:
(Compound A), which has a thiazolyl moiety in place of the furanyl moiety in Compound 75. Female CD-1 mice treated with a single intravenous bolus (IV; 1 mg/kg) or oral gavage (PO; 3 mg/kg) of one of the compounds. The percent bioavailability (% F) was calculated by dividing the dose normalized area under the plasma concentration curve (AUC0-∞) by the dose normalized IV plasma AUC0-∞.

[4] = molecular target: T2, recombinant human PMYT-1 (Myt1 kinase) (Homo sapiens, UniProt Q99640); assay: LanthaScreen Europium (Eu) Kinase Binding Assay for Myt1 kinase; details: TR-FRET tracer 178 displacement, GST-tagged full length PMYT-1, 60 min, room temperature; mean IC50; read-out: LANTHA Kinase Binding for PMyt1
T2 construct: full length PMYT-1 was expressed by baculovirus in insect cells using a N-terminal GST tag; purchased Invitrogen A30984; host or cells: insect cells (baculovirus)
T2 sequence (Q99640 1-499): T1 sequence (Q99640 1-499)
Source text: We used a LanthaScreen Europium (Eu) Kinase Binding Assay to determine the binding of provided compounds to Myt1 kinase. The assay utilizes an Alexa Fluor 647-labeled ATP competitive kinase tracer that binds to the ATP binding site of a GST-tagged Myt1 kinase, while a europium (Eu) labeled antibody binds to the GST tag. The proximity of fluorescently labeled kinase tracer and europium (Eu) donor fluorophore antibody leads to fluorescence resonance energy transfer (FRET) to the fluorescence label (acceptor) upon excitation of the Eu (donor). Displacement of tracer from the ATP-binding site by a test compound disturbs the proximity between both labels thus lowering the FRET.
This time resolved-FRET binding assay was performed in white 384-well low volume plates (Greiner, cat #784075), at room temperature in kinase buffer A (KBA; Invitrogen cat # PV3189), consisting of 50 mM HEPES-NaOH (pH 7.5), 0.01% Brij-35, 10 mM MgCl2, and 1 mM EGTA. 5 μl of compound (diluted in reaction buffer, to 1% DMSO) were added to various wells in the plate, followed by 5 μl each of recombinant human PMYT-1 (full length PMYT-1 was expressed by baculovirus in insect cells using a N-terminal GST tag (MW: 80.8 kDa) (Invitrogen cat #A30984) and LanthaScreen Eu-anti-GST antibody (Invitrogen, cat #PV5594). After this, 5 μl of kinase tracer 178 (Invitrogen, cat #PV5593) was added to the plate and the plate was incubated for 60 minutes at room temperature. The final assay conditions in each well were: 3 nM tracer 178, 2.5 nM PMYT-1 and 1 nM Eu-labeled antibody in total assay volume of 15 μl. An Envision 2104 (Perkin-Elmer) Plate Reader with the following time-resolve fluorescence setting was used for performing LanthaScreen kinase binding assay. • Excitation 320 nm (30 nm bandpass) • Kinase Tracer Emission 665 nm (10 nm bandpass) • LanthaScreen Eu-anti-Tag Antibody Emission 615 nm (10 nm bandpass) • Dichroic Mirror Instrument dependent • Delay Time 100 μs • Integration Time 200 μs
To calculate the emission ratio, the acceptor/tracer emission ([…]) was divided by the antibody/donor emission ([…]) and the average of duplicate measurement was used for calculations. Data plotting, analysis of binding, and curve fitting was done using Excel add-in XLfit version 5.5.0.5 (IDBS, Guildford, United Kingdom).

pEC50 [1] | Bioavailability (% F) [3] | pIC50 [4] | Compound | pEC50 [2]
≥ 6.60 | 32 % F | ≥ 8.00 | Cc1ccc(O)c(C)c1-n1nc(-c2nccs2)c(C(N)=O)c1N [Compound 122] | ≥ 6.30
≥ 6.60 | – | ≥ 8.00 | Cc1ccc(O)c(C)c1-n1nc(-c2ncco2)c(C(N)=O)c1N [Compound 123] | 6.00 to 6.30
≥ 6.60 | – | ≥ 8.00 | Cc1ccc(O)c(C)c1-n1nc(-c2cc(-c3ccccc3)co2)c(C(N)=O)c1N [Compound 88, 5-amino-1-(3-hydroxy-2,6-xylyl)-3-(4-phenyl-2-furyl)-4-pyrazolecarboxamide] | ≥ 6.30
≥ 6.60 | – | ≥ 8.00 | C/C=C/c1coc(-c2nn(-c3c(C)ccc(O)c3C)c(N)c2C(N)=O)c1 [Compound 112, 3-{4-[(E)-1-propenyl]-2-furyl}-5-amino-1-(3-hydroxy-2,6-xylyl)-4-pyrazolecarboxamide] | 6.00 to 6.30
≥ 6.60 | – | ≥ 8.00 | Cc1ccc(O)c(C)c1-n1nc(-c2cc(-c3ccncc3)co2)c(C(N)=O)c1N [Compound 95, 5-amino-1-(3-hydroxy-2,6-xylyl)-3-[4-(4-pyridyl)-2-furyl]-4-pyrazolecarboxamide] | ≥ 6.30
≥ 6.60 | – | ≥ 8.00 | Cc1ccc(O)c(C)c1-n1nc(-c2ccc(-c3ccncc3)o2)c(C(N)=O)c1N [Compound 99, 5-amino-1-(3-hydroxy-2,6-xylyl)-3-[5-(4-pyridyl)-2-furyl]-4-pyrazolecarboxamide] | < 6.00
≥ 6.60 | – | ≥ 8.00 | Cc1ccc(O)c(C)c1-n1nc(-c2ccc(-c3cccnc3)o2)c(C(N)=O)c1N [Compound 86, 5-amino-1-(3-hydroxy-2,6-xylyl)-3-[5-(3-pyridyl)-2-furyl]-4-pyrazolecarboxamide] | 6.00 to 6.30
≥ 6.60 | – | ≥ 8.00 | C=C(C)c1coc(-c2nn(-c3c(C)ccc(O)c3C)c(N)c2C(N)=O)c1 [Compound 97, 5-amino-1-(3-hydroxy-2,6-xylyl)-3-(4-isopropenyl-2-furyl)-4-pyrazolecarboxamide] | ≥ 6.30
6.30 to 6.60 | – | 7.00 to 8.00 | Cc1ccc(O)c(C)c1-n1nc(-c2cc(C#CC(C)(C)O)co2)c(C(N)=O)c1N [Compound 113, 5-amino-3-[4-(3-hydroxy-3-methyl-1-butynyl)-2-furyl]-1-(3-hydroxy-2,6-xylyl)-4-pyrazolecarboxamide] | < 6.00
≥ 6.60 | – | ≥ 8.00 | Cc1ccc(O)c(C)c1-n1nc(-c2ccccn2)c(C(N)=O)c1N [Compound 35] | < 6.00
≥ 6.60 | – | ≥ 8.00 | Cc1ccc(O)c(C)c1-n1nc(-c2ccc(-c3ccccc3)o2)c(C(N)=O)c1N [Compound 87, 5-Amino-1-(3-hydroxy-2,6-xylyl)-3-(5-phenyl-2-furyl)-4-pyrazolecarboxamide] | ≥ 6.30
≥ 6.60 | – | ≥ 8.00 | Cc1ccc(O)c(C)c1-n1nc(-c2ccc(Cl)o2)c(C(N)=O)c1N [Compound 80, 5-amino-3-(5-chloro-2-furyl)-1-(3-hydroxy-2,6-xylyl)-4-pyrazolecarboxamide] | < 6.00
≥ 6.60 | 64 % F | ≥ 8.00 | Cc1ccc(O)c(C)c1-n1nc(-c2ccco2)c(C(N)=O)c1N [Compound 75, 5-amino-3-(2-furyl)-1-(3-hydroxy-2,6-xylyl)-4-pyrazolecarboxamide] | ≥ 6.30
≥ 6.60 | – | ≥ 8.00 | Cc1ccc(O)c(C)c1-n1nc(-c2cc(-c3ccccn3)co2)c(C(N)=O)c1N [Compound 98, 5-amino-1-(3-hydroxy-2,6-xylyl)-3-[4-(2-pyridyl)-2-furyl]-4-pyrazolecarboxamide] | ≥ 6.30
≥ 6.60 | – | 7.00 to 8.00 | Cc1ccc(O)c(C)c1-n1nc(-c2ccccc2)c(C(N)=O)c1N [Compound 9, 5-amino-1-(3-hydroxy-2,6-dimethylphenyl)-3-phenyl-1H-pyrazole-4-carboxamide; trifluoroacetic acid] | < 6.00
≥ 6.60 | – | ≥ 8.00 | Cc1ccc(O)c(C)c1-n1nc(-c2cc3ccccc3o2)c(C(N)=O)c1N (single isomer, unassigned) [Compound 107, 5-amino-3-(benzofuran-2-yl)-1-(3-hydroxy-2,6-dimethylphenyl)-1H-pyrazole-4-carboxamide] | ≥ 6.30
